Test results taken from US20240090503A1, “FUNGICIDAL OXADIAZOLES AND THEIR MIXTURES” (FMC CORPORATION, priority 2020, published 2024).
Marks after values point to notes of the source that are not given here.

Legend:
Format in all cases: in vivo
[1] = test system: Phakopsora pachyrhizi (the causal agent of Asian soybean rust); assay: Test A: preventive spray on soybean seedlings, Asian soybean rust, visual disease rating
How it was run: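 Preventive test: soybean seedlings received a run-off spray of compound suspended at the set ppm in 50/50 acetone/water plus 250 ppm PEG400, and one day later a P. pachyrhizi spore inoculum. Visual scoring (0 none to 100 full disease control) followed 24 h saturated incubation and 8 days' growth chamber, both at 22° C.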

[2] = test system: Zymoseptoria tritici (the causal agent of wheat leaf blotch); assay: Test B: preventive spray on wheat seedlings, wheat leaf blotch, visual disease rating; conditions: for pest or weed control at 250 ppm / Test B disease control rating / pest or weed control at 250 µg/mL: wheat seedlings
How it was run: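 This is a preventive test: spray application preceded Zymoseptoria tritici spore inoculation by one day. Test suspensions were in acetone/water with 250 ppm PEG400 surfactant, at the listed ppm rate. After 48 h saturated humidity at 24° C and 17 days at 20° C, visual ratings scored control from 0 to 100%.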

[3] = test system: Puccinia recondita f. sp. tritici (the causal agent of wheat leaf rust); assay: Test C: preventive spray on wheat seedlings, wheat leaf rust, visual disease rating
How it was run: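 Wheat seedlings sprayed to run-off with compound in acetone/water (50/50) with 250 ppm PEG400, then inoculated with spores the following day. After 24 h saturated humidity at 20° C. and 6 days in growth chamber at 20° C., disease rated visually as % control relative to untreated controls.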

[4] = Phakopsora pachyrhizi, 216 h, 10 ppm test suspension, soybean seedlings, 100 = 100% disease control, 0 = no control
[5] = Zymoseptoria tritici, 456 h, 250 ppm test suspension, 100 = 100% disease control
[6] = Puccinia recondita, 168 h, 10 ppm test suspension, wheat seedlings, 100 = 100% disease control, 0 = no control
[7] = test suspension 250 ppm, soybean seedlings
[8] = test suspension 250 ppm, wheat seedlings
[9] = test suspension 10 ppm, soybean seedlings, 100 = 100% disease control, 0 = no control
[10] = test suspension 10 ppm, wheat seedlings
[11] = test suspension 50 ppm, soybean seedlings
[12] = test suspension 50 ppm, wheat seedlings
[13] = 10 ppm test suspension, soybean seedlings, 100 = 100% disease control, 0 = no control
[14] = 250 ppm test suspension, 100 = 100% disease control
[15] = 10 ppm test suspension, wheat seedlings, 100 = 100% disease control, 0 = no control
[16] = Phakopsora pachyrhizi, 216 h, test suspension 250 ppm, soybean seedlings
[17] = Zymoseptoria tritici, 456 h, test suspension 250 ppm
[18] = Puccinia recondita, 168 h, test suspension 250 ppm, wheat seedlings

## O=C(NCCF)c1coc(Cc2ccc(-c3noc(C(F)(F)F)n3)cc2)n1 [Compound 400, N-(2-fluoroethyl)-2-[[4-[5-(trifluoromethyl)-1,2,4-oxadiazol-3-yl]phenyl]methyl]-4-oxazolecarboxamide]
[1]; [4]
  pest or weed control at 10 ppm: 100%
[2]; [5]
  pest or weed control at 250 ppm: 99%
[3]; [6]
  pest or weed control at 10 ppm: 100%

## O=C1COCCN1Cc1ccc(-c2noc(C(F)(F)F)n2)s1 [compound 325]
[1]; [7]
  Test A disease control rating: 100%
[2]; test suspension 250 ppm
  Test B disease control rating: 36* %
[3]; [8]
  Test C disease control rating: 100%

## FC(F)(F)c1nc(-c2ccc(OCc3cn4ccccc4n3)cc2)no1 [compound 313]
[1]; [9]
  Test A disease control rating: 77%
[2]; test suspension 250 ppm
  Test B disease control rating: 14* %
[3]; [10]
  Test C disease control rating: 0%

## O=C(NCC(F)(F)F)c1csc(Cc2ccc(-c3noc(C(F)(F)F)n3)cc2)n1 [Compound 463, N-(2,2,2-trifluoroethyl)-2-[[4-[5-(trifluoromethyl)-1,2,4-oxadiazol-3-yl]phenyl]methyl]-4-thiazolecarboxamide]
[1]; [4]
  pest or weed control at 10 ppm: 100%
[2]; [5]
  pest or weed control at 250 ppm: 65%
[3]; [6]
  pest or weed control at 10 ppm: 100%

## CCOC(=O)c1cnn(Cc2ccc(-c3noc(C(F)(F)F)n3)o2)c1 [compound 210]
[1]; [11]
  Test A disease control rating: 100%
[2]; test suspension 250 ppm
  Test B disease control rating: 63* %
[3]; [12]
  Test C disease control rating: 99%

## NC(=O)C1=NOC(Cc2ccc(-c3noc(C(F)(F)F)n3)cc2)C1 (stereo not drawn) [compound 164]
[1]; [7]
  Test A disease control rating: 100%
[2]; test suspension 250 ppm
  Test B disease control rating: 88%
[3]; [8]
  Test C disease control rating: 100%

## O=C(NCCn1cccn1)c1csc(Cc2ccc(-c3noc(C(F)(F)F)n3)cc2)c1 [compound 289]
[1]; [9]
  Test A disease control rating: 100%
[2]; test suspension 250 ppm
  Test B disease control rating: 80* %
[3]; [10]
  Test C disease control rating: 100%

## N#CCNC(=O)c1coc(COc2ccc(-c3noc(C(F)(F)F)n3)cc2)n1 [compound 468]
[1]; [13]
  Test A disease control rating: 84%
[2]; [14]
  Test B disease control rating: 22* %
[3]; [15]
  Test C disease control rating: 0%

## O=c1cc(-c2noc(C(F)(F)F)n2)ccn1Cc1ccccc1F [compound 232]
[1]; [16]
  pest or weed control at 250 µg/mL: 100%
[2]; [17]
  pest or weed control at 250 µg/mL: 68%
[3]; [18]
  pest or weed control at 250 µg/mL: 100%

## N#Cc1csc(Cc2ccc(-c3noc(C(F)(F)F)n3)cc2)n1 [compound 370]
[1]; [7]
  Test A disease control rating: 100%
[2]; test suspension 250 ppm
  Test B disease control rating: 98* %
[3]; [8]
  Test C disease control rating: 100%

## CCOC(=O)c1cnn(CCn2cc(-c3noc(C(F)(F)F)n3)cn2)c1 [compound 307]
[1]; [11]
  Test A disease control rating: 0%
[2]; test suspension 250 ppm
  Test B disease control rating: 0* %
[3]; [12]
  Test C disease control rating: 0%

## COc1cccc(Cn2ccc(-c3noc(C(F)(F)F)n3)cc2=O)c1 [compound 233]
[1]; Phakopsora pachyrhizi, 216 h, test suspension 50 ppm, soybean seedlings
  pest or weed control at 50 µg/mL: 97%
[2]; [17]
  pest or weed control at 250 µg/mL: 90%
[3]; Puccinia recondita, 168 h, test suspension 50 ppm, wheat seedlings
  pest or weed control at 50 µg/mL: 100%

## FC(F)(F)c1nc(-c2ccc(Cn3ncc4cc(Cl)ccc43)cc2)no1 [compound 119]
[1]; test suspension 265 ppm, soybean seedlings
  Test A disease control rating: 100%
[2]; test suspension 265 ppm
  Test B disease control rating: 54%
[3]; test suspension 265 ppm, wheat seedlings
  Test C disease control rating: 100%

## O=S1(=O)CCCCN1Cc1ccc(-c2noc(C(F)(F)F)n2)s1 [compound 323]
[1]; [7]
  Test A disease control rating: 100%
[2]; test suspension 250 ppm
  Test B disease control rating: 92* %
[3]; [8]
  Test C disease control rating: 100%

## FC(F)(F)c1nc(-c2ccc(OCc3nc4ncccc4o3)cc2)no1 [compound 320]
[1]; [9]
  Test A disease control rating: 97%
[2]; test suspension 250 ppm
  Test B disease control rating: 33* %
[3]; [10]
  Test C disease control rating: 0%

## N#Cc1ccc2ccn(Cc3ccc(-c4noc(C(F)(F)F)n4)cc3)c2c1 [compound 88]
[1]; [7]
  Test A disease control rating: 100%
[2]; test suspension 250 ppm
  Test B disease control rating: 93%
[3]; [8]
  Test C disease control rating: 100%

## CCOC(=O)c1coc(Cc2ccc(-c3noc(C(F)(F)F)n3)cc2)n1 [compound 252]
[1]; [9]
  Test A disease control rating: 100%
[2]; test suspension 250 ppm
  Test B disease control rating: 92* %
[3]; [10]
  Test C disease control rating: 84%

## Cc1ccccc1C(O)c1ccc(-c2noc(C(F)(F)F)n2)cc1 (stereo not drawn) [Compound 497]
[1]; [13]
  Test A disease control rating: 100%
[2]; [14]
  Test B disease control rating: 5* %
[3]; [15]
  Test C disease control rating: 0%

## O=C1COCCN1Cc1ccc(-c2noc(C(F)(F)F)n2)cc1 [compound 372]
[1]; [7]
  Test A disease control rating: 100%
[2]; test suspension 250 ppm
  Test B disease control rating: 99* %
[3]; [8]
  Test C disease control rating: 100%

## Fc1cccc2nn(Cc3ccc(-c4noc(C(F)(F)F)n4)cc3)cc12 [compound 130]
[1]; test suspension 260 ppm, soybean seedlings
  Test A disease control rating: 100%
[2]; test suspension 260 ppm
  Test B disease control rating: 89%
[3]; test suspension 260 ppm, wheat seedlings
  Test C disease control rating: 100%

## NC(=O)c1coc(Cc2ccc(-c3noc(C(F)(F)F)n3)cc2)n1 [compound 254]
[1]; [9]
  Test A disease control rating: 100%
[2]; test suspension 250 ppm
  Test B disease control rating: 70* %
[3]; [10]
  Test C disease control rating: 100%

## COCCNC(=O)c1cnn(COc2ccc(-c3noc(C(F)(F)F)n3)cc2)c1 [compound 213]
[1]; [9]
  Test A disease control rating: 100%
[2]; test suspension 250 ppm
  Test B disease control rating: 82* %
[3]; [10]
  Test C disease control rating: 74%

## FC(F)(F)c1nc(-c2ccc(OCc3cccnc3)cc2)no1 [Compound 353]
[1]; [9]
  Test A disease control rating: 0%
[2]; test suspension 250 ppm
  Test B disease control rating: 73* %
[3]; [10]
  Test C disease control rating: 0%

## O=C(NCCn1cccn1)c1coc(Cc2ccc(-c3noc(C(F)(F)F)n3)cc2)c1 [compound 293]
[1]; [9]
  Test A disease control rating: 100%
[2]; test suspension 250 ppm
  Test B disease control rating: 91* %
[3]; [10]
  Test C disease control rating: 79%

## CCOC(=O)c1cnn(Cc2csc(-c3noc(C(F)(F)F)n3)c2)c1 [compound 193]
[1]; [11]
  Test A disease control rating: 100%
[2]; test suspension 250 ppm
  Test B disease control rating: 28* %
[3]; [12]
  Test C disease control rating: 100%

## COC(=O)c1cnn(Cc2ccc(-c3noc(C(F)(F)F)n3)cc2)c1 [Compound 21, methyl 1-[[4-[5-(trifluoromethyl)-1,2,4-oxadiazol-3-yl]phenyl]methyl]-1H-pyrazole-4-carboxylate]
[1]; Phakopsora pachyrhizi, 216 h, read-out: Test A disease control rating
  pest or weed control at 10 µg/mL: 100%
[2]; Zymoseptoria tritici, 456 h, read-out: Test B disease control rating
  pest or weed control at 100 µg/mL: 97%
[3]; Puccinia recondita, 168 h, read-out: Test C disease control rating
  pest or weed control at 10 µg/mL: 100%

## CCOC(=O)c1ccc(Cc2ccc(-c3noc(C(F)(F)F)n3)cc2)cc1 [compound 453]
[1]; [13]
  Test A disease control rating: 92%
[2]; [14]
  Test B disease control rating: 50* %
[3]; [15]
  Test C disease control rating: 0%

## COC(=O)c1ccc(COc2ccc(-c3noc(C(F)(F)F)n3)cc2)s1 [compound 317]
[1]; [9]
  Test A disease control rating: 0%
[2]; test suspension 250 ppm
  Test B disease control rating: 54* %
[3]; [10]
  Test C disease control rating: 0%

## CCc1nn(Cc2ccc(-c3noc(C(F)(F)F)n3)cc2)c(=O)n1C [compound 235]
[1]; [7]
  Test A disease control rating: 100%
[2]; test suspension 250 ppm
  Test B disease control rating: 87%
[3]; [8]
  Test C disease control rating: 100%

## FC(F)(F)c1ccn(Cc2ccc(-c3noc(C(F)(F)F)n3)cc2)n1 [compound 153]
[1]; [7]
  Test A disease control rating: 100%
[2]; test suspension 250 ppm
  Test B disease control rating: 0%
[3]; [8]
  Test C disease control rating: 89%

## O=C(NC1CCOC1=O)c1coc(Cc2ccc(-c3noc(C(F)(F)F)n3)cc2)n1 (stereo not drawn) [compound 332]
[1]; [9]
  Test A disease control rating: 100%
[2]; test suspension 250 ppm
  Test B disease control rating: 99* %
[3]; [10]
  Test C disease control rating: 99%

## CCOC(=O)c1cnn(Cn2ccc(-c3noc(C(F)(F)F)n3)cc2=O)c1 [compound 234]
[1]; [9]
  Test A disease control rating: 100%
[2]; test suspension 250 ppm
  Test B disease control rating: 87* %
[3]; [10]
  Test C disease control rating: 88%

## FC(F)(F)c1nc(-c2ccc(OCn3cncn3)cc2)no1 [Compound 337]
[1]; [9]
  Test A disease control rating: 99%
[2]; test suspension 250 ppm
  Test B disease control rating: 78* %
[3]; [10]
  Test C disease control rating: 82%

## N#Cc1cnn(CCCc2ccc(-c3noc(C(F)(F)F)n3)cc2)c1 [compound 359]
[1]; [9]
  Test A disease control rating: 100%
[2]; test suspension 250 ppm
  Test B disease control rating: 99* %
[3]; [10]
  Test C disease control rating: 95%

## N#CCNC(=O)c1cnn(COc2ccc(-c3noc(C(F)(F)F)n3)cc2)c1 [compound 214]
[1]; [9]
  Test A disease control rating: 100%
[2]; test suspension 250 ppm
  Test B disease control rating: 73* %
[3]; [10]
  Test C disease control rating: 74%

## FC(F)(F)c1nc(-c2ccc(Cn3cnc4ccccc43)cc2)no1 [compound 91]
[1]; [7]
  Test A disease control rating: 100%
[2]; test suspension 250 ppm
  Test B disease control rating: 96%
[3]; [8]
  Test C disease control rating: 100%

## FC(F)(F)c1nc(-c2ccc(Cn3cc(Br)cn3)s2)no1 [Compound 71, 3-[5-[(4-bromo-1H-pyrazol-1-yl)methyl]-2-thienyl]-5-(trifluoromethyl)-1,2,4-oxadiazole]
[1]; [16]
  pest or weed control at 250 µg/mL: 100%
[2]; [17]
  pest or weed control at 250 µg/mL: 36%
[3]; [18]
  pest or weed control at 250 µg/mL: 100%

## CCN(CC)C(=O)c1coc(Cc2ccc(-c3noc(C(F)(F)F)n3)cc2)n1 [compound 262]
[1]; [9]
  Test A disease control rating: 100%
[2]; test suspension 250 ppm
  Test B disease control rating: 96* %
[3]; [10]
  Test C disease control rating: 98%

## O=C(NCCC(F)(F)F)c1coc(COc2ccc(-c3noc(C(F)(F)F)n3)cc2)n1 [compound 467]
[1]; [13]
  Test A disease control rating: 97%
[2]; [14]
  Test B disease control rating: 6* %
[3]; [15]
  Test C disease control rating: 68%
